From the Deep4Chem optical property database
Values belong to the molecule of their own block, whether it stands above or below them.

Test: photoluminescence quantum yield (fraction); solvent given as SMILES
[1] = in O=P(c1ccccc1)(c1ccccc1)c1ccccc1Oc1ccccc1P(=O)(c1ccccc1)c1ccccc1

Compound: c1ccc(-c2nc(-c3ccc(-c4ccc(-c5nc(-c6ccccc6)c(-c6ccccc6)o5)cc4)cc3)oc2-c2ccccc2)cc1
photoluminescence quantum yield (in C1COCCO1): 0.74

Compound: CCCCCCCCC1(CCCCCCCC)c2ccccc2-c2ccc(-c3nnc(-c4cccc(-n5c6ccc(C(C)(C)C)cc6c6cc(C(C)(C)C)ccc65)c4)o3)cc21
photoluminescence quantum yield (in Cc1ccccc1): 0.13

Compound: C[Si]1(C)c2ccc(-c3ccc(N(c4ccccc4)c4ccccc4)cc3)cc2C=Cc2cc(-c3ccc(N(c4ccccc4)c4ccccc4)cc3)ccc21
photoluminescence quantum yield (in ClCCl): 0.43

Compound: CSc1sc(C(N)=O)c2nnn(C)c(=O)c12
photoluminescence quantum yield (in C1CCOC1): 0.5
photoluminescence quantum yield (in CC#N): 0.38
photoluminescence quantum yield (in CCO): 0.22
photoluminescence quantum yield (in CN(C)C=O): 0.27
photoluminescence quantum yield (in CO): 0.16
photoluminescence quantum yield (in CS(C)=O): 0.1

Compound: COc1ccccc1C1=NC2c3cccc4cccc(c34)C2N1c1ccccc1 (stereo unspecified)
photoluminescence quantum yield (in Cc1ccccc1): 0.01

Compound: c1ccc2[nH]ccc2c1
photoluminescence quantum yield (in O): 0.93

Compound: N#Cc1ccc(-c2cnc3cccc(-c4ccccc4)n23)cc1
photoluminescence quantum yield (in ClCCl): 0.19

Compound: O=S1(=O)c2ccccc2Oc2cc(N3c4ccccc4C4(c5ccccc53)c3ccccc3N(c3ccc5c(c3)Oc3ccccc3S5(=O)=O)c3ccccc34)ccc21
photoluminescence quantum yield [1]: 0.63

Compound: O=C1c2ccccc2C(=O)C1C1C(=O)c2c3ccccc3cc3cc4ccccc4c1c23 (stereo unspecified)
photoluminescence quantum yield (in C1CCOC1): 0.294
photoluminescence quantum yield (in CC#N): 0.139
photoluminescence quantum yield (in CCCCCC): 0.339
photoluminescence quantum yield (in Cc1ccccc1): 0.356
photoluminescence quantum yield (in ClCCl): 0.247

Compound: Brc1cnc(-c2ccncc2)s1
photoluminescence quantum yield (in CO): 0.02

Compound: CCOC(=O)COc1ccc(/C=C/c2cc(C)c3n2[B-](F)(F)[N+]2=C(c4[nH]c(C)cc4C)c4ccccc4C2=C3)cc1
photoluminescence quantum yield (in C1CCOC1): 0.34
photoluminescence quantum yield (in CC#N): 0.3
photoluminescence quantum yield (in CCCCCC): 0.73
photoluminescence quantum yield (in CO): 0.08
photoluminescence quantum yield (in Cc1ccccc1): 0.69
photoluminescence quantum yield (in ClCCl): 0.75

Compound: CN(C)c1ccc(/C=C2\CC/C(=C\c3ccc(N(C)C)cc3)C2=O)cc1
photoluminescence quantum yield (in C1CCOC1): 0.089
photoluminescence quantum yield (in C1COCCO1): 0.08
photoluminescence quantum yield (in CC#N): 0.11
photoluminescence quantum yield (in CC(C)=O): 0.15
photoluminescence quantum yield (in CC(C)O): 0.18
photoluminescence quantum yield (in CCO): 0.11
photoluminescence quantum yield (in CCOC(C)=O): 0.09
photoluminescence quantum yield (in CN(C)C=O): 0.19
photoluminescence quantum yield (in CO): 0.025
photoluminescence quantum yield (in CS(C)=O): 0.2
photoluminescence quantum yield (in Cc1ccccc1): 0.08
photoluminescence quantum yield (in ClC(Cl)(Cl)Cl): 0.043
photoluminescence quantum yield (in ClC(Cl)Cl): 0.13
photoluminescence quantum yield (in ClCCl): 0.16
photoluminescence quantum yield (in S=C=S): 0.1

Compound: CC1(C)c2ccccc2N(c2ccc(-c3nnc(-c4ccc(N5c6ccccc6C(C)(C)c6ccccc65)cc4)o3)cc2)c2ccccc21
photoluminescence quantum yield [1]: 0.62

Compound: N#Cc1cc(-n2c3ccccc3c3ccccc32)c(-n2c3ccccc3c3ccccc32)cc1C#N
photoluminescence quantum yield (in C1CCOC1): 0.125
photoluminescence quantum yield (in Cc1ccccc1): 0.465
photoluminescence quantum yield (in c1ccc2c(c1)c1ccccc1n2-c1ccc(-c2ccc(-n3c4ccccc4c4ccccc43)cc2)cc1): 0.6

Compound: CCCCN1c2ccccc2Sc2cc(/C=C/c3nc4nc5ccccc5nc4s3)ccc21
photoluminescence quantum yield (in C1CCCCC1): 0.27
photoluminescence quantum yield (in C1CCOC1): 0.01
photoluminescence quantum yield (in C1COCCO1): 0.07
photoluminescence quantum yield (in CC#N): 0
photoluminescence quantum yield (in CC(C)=O): 0.001
photoluminescence quantum yield (in CC(C)O): 0
photoluminescence quantum yield (in CCOC(C)=O): 0.02
photoluminescence quantum yield (in CCOCC): 0.05
photoluminescence quantum yield (in CO): 0
photoluminescence quantum yield (in CS(C)=O): 0
photoluminescence quantum yield (in Cc1ccccc1): 0.08
photoluminescence quantum yield (in ClCCl): 0.008

Compound: COOCc1noc(-c2ccccc2)c1Cl
photoluminescence quantum yield (in C1CCCCC1): 0.006

Compound: c1ccc(-n2nc(-c3ccc(N4c5ccccc5Sc5ccccc54)cc3)nc2-c2ccccn2)cc1
photoluminescence quantum yield (in ClCCl): 0.0562

Compound: COC(=O)c1ccc(/C=C2\C=C(c3ccccc3)OC2=O)cc1
photoluminescence quantum yield (in C1COCCO1): 0.007

Compound: Cc1ccc2c(c1)n(C)c(-c1ccc(-c3ccc(-c4ccc(-c5n(C)c6cc(C)ccc6[n+]5C)cc4)cc3)cc1)[n+]2C
photoluminescence quantum yield (in O): 0.68

Compound: N#Cc1c(N2CCCCC2)cc(-c2ccc3c(c2)OCO3)c2c1-c1cccc3cccc-2c13
photoluminescence quantum yield (in O): 0.3

Compound: Fc1ccc2cc3cccc[n+]3cc2c1
photoluminescence quantum yield (in O): 0.34

Compound: COC(=O)c1[nH]c(-c2ccc([N+](=O)[O-])cc2)c2nnc3ccc(OC)cc3c12
photoluminescence quantum yield (in ClCCl): 0.262

Compound: CCc1c(C)c2n(c1C)[B-](F)(F)[N+]1=C(c3ccc[nH]3)c3ccccc3C1=C2
photoluminescence quantum yield (in C1CCOC1): 0.71
photoluminescence quantum yield (in CC#N): 0.74
photoluminescence quantum yield (in CCCCCC): 0.82
photoluminescence quantum yield (in CO): 0.65
photoluminescence quantum yield (in Cc1ccccc1): 0.72
photoluminescence quantum yield (in ClCCl): 0.66

Compound: CCCCOc1ccc(/C=C/C=C/C=C/c2ccc([N+](=O)[O-])cc2)cc1
photoluminescence quantum yield (in CC1CCCCC1): 0.25
photoluminescence quantum yield (in CC#N): 0.014
photoluminescence quantum yield (in Cc1ccccc1): 0.53
photoluminescence quantum yield (in ClCCl): 0.06

Compound: c1ccc2c(P(c3c4ccccc4cc4ccccc34)c3c4ccccc4cc4ccccc34)c3ccccc3cc2c1
photoluminescence quantum yield (in C1CCOC1): 0

Compound: CCCCCOc1cc2oc(=O)c3c4ccc(N(c5ccccc5)c5ccccc5)cc4c4ccc5cccc6c(c1)c2c3c4c56
photoluminescence quantum yield (in C1CCOC1): 0.752

Compound: c1cc2ccc3ccc(-c4ccc(-c5nnc(-c6ccc(-c7nnc(-c8ccc(-c9ccc%10ccc%11cccc%12ccc9c%10c%11%12)s8)o7)cc6)o5)s4)c4ccc(c1)c2c34
photoluminescence quantum yield (in ClC(Cl)Cl): 0.06

Compound: COc1ccc(/C=C/C(=O)c2ccccc2O)cc1OC
photoluminescence quantum yield (in C1CCOC1): 0
photoluminescence quantum yield (in C1COCCO1): 0.072
photoluminescence quantum yield (in CC#N): 0.28
photoluminescence quantum yield (in CCCO): 0.37
photoluminescence quantum yield (in CCO): 0.15
photoluminescence quantum yield (in CN(C)C=O): 0.36
photoluminescence quantum yield (in CO): 0.24
photoluminescence quantum yield (in CS(C)=O): 0.47
photoluminescence quantum yield (in ClC(Cl)Cl): 0.053
photoluminescence quantum yield (in ClCCl): 0.037

Compound: c1cc2ccc3ccc4cc3c2cc1c1ccc2ccc3ccc(cc3c2c1)c1ccc2c(c1)c1cc4ccc1[C@]13OCCO[C@]21OCCO3
photoluminescence quantum yield (in Cc1ccccc1): 0.78

Compound: CCCCCCCCCC1(CCCCCCCCC)c2cc(C#Cc3ccc(C#Cc4ccc(N(CCCCCC)CCCCCC)cc4)cc3)ccc2-c2ccc(C#Cc3ccc(C#Cc4ccc(N(CCCCCC)CCCCCC)cc4)cc3)cc21
photoluminescence quantum yield (in Cc1ccccc1): 0.82

More lines, now with the values ahead:

photoluminescence quantum yield (in ClC(Cl)Cl): 0.049
Compound: F[B-]1(F)OC(c2ccc(Br)cc2)=Cc2c3ccccc3cc[n+]21

photoluminescence quantum yield (in CC#N): 0.235
Compound: CCOC(=O)c1c(NC(C)(C)C)oc(-c2ccc(-c3ccccc3)cc2)c1C(=O)OCC

photoluminescence quantum yield (in CC#N): 0.63
Compound: Fc1nc(F)c(F)c(C#Cc2ccccc2C#Cc2c(F)c(F)nc(F)c2F)c1F

photoluminescence quantum yield (in CCO): 0.148
Compound: CC1(C)C(/C=C/C2=C(Cl)C(=C/C=C3/N(Cc4ccc(F)cc4)c4ccccc4C3(C)C)/CCC2)=[N+](Cc2ccc(F)cc2)c2ccccc21

photoluminescence quantum yield (in C1CCCCC1): 0.0073
photoluminescence quantum yield (in c1ccccc1): 0.001
Compound: CNc1ccc2c(c1)C(=O)c1ccccc1-2

photoluminescence quantum yield (in CCCO): 0.89
Compound: c1ccc2c(c1)[nH]c1c3ccccc3[nH]c21

photoluminescence quantum yield (in C1CCCCC1): 0.031
photoluminescence quantum yield (in CC#N): 0.057
photoluminescence quantum yield (in CCO): 0.068
photoluminescence quantum yield (in c1ccccc1): 0.055
Compound: Nc1cccc2c1C(=O)c1ccccc1-2

photoluminescence quantum yield (in CC#N): 0.13
photoluminescence quantum yield (in CCCCCC): 0.11
Compound: CCN(CC)c1ccc(-n2cccc2)cc1

photoluminescence quantum yield (in CO): 0.17
Compound: Cc1ccc(-c2nc(-c3cccc(C#N)c3)[nH]c2-c2ccc(C)cc2)cc1

photoluminescence quantum yield (in CC#N): 0.015
Compound: C[n+]1ccc(/C=C/c2cc[n+](C)cc2)cc1

photoluminescence quantum yield (in C1CCOC1): 0.12
photoluminescence quantum yield (in CS(C)=O): 0.1
photoluminescence quantum yield (in ClCCl): 0.15
Compound: COc1cc(OC)cc(C2=C3C(C)=C(I)C(/C=C/c4c[nH]c5ccccc45)=[N+]3[B-](F)(F)n3c(/C=C/c4c[nH]c5ccccc45)c(I)c(C)c32)c1

photoluminescence quantum yield (in C1CCCCC1): 0.0085
Compound: C[Si](C)(C)C#Cc1ccc(C#Cc2cnc(C#Cc3ccccc3)nc2)cc1

photoluminescence quantum yield (in C1CCCCC1): 0.38
photoluminescence quantum yield (in CC#N): 0.26
photoluminescence quantum yield (in CO): 0.33
photoluminescence quantum yield (in ClCCl): 0.41
Compound: COc1c2ccccc2c(OC)c2c1c1c(F)cccc1n2C

photoluminescence quantum yield (in CS(C)=O): 0.61
Compound: CCC/N=C/c1cc2ccc(N(C)C)cc2cc1OC

photoluminescence quantum yield (in C1CCCCC1): 0.006
photoluminescence quantum yield (in CC#N): 0.043
photoluminescence quantum yield (in CCO): 0.0033
photoluminescence quantum yield (in c1ccccc1): 0.13
Compound: Nc1ccc2c(c1)-c1ccccc1C2=O

photoluminescence quantum yield (in CO): 0.42
Compound: COc1ccc(-c2nc(-c3ccc(C(=O)O)cc3)[nH]c2-c2ccc(OC)cc2)cc1

photoluminescence quantum yield (in CC#N): 0.038
Compound: COc1ccc(-c2csc(/C(C#N)=C/c3c(Cl)cccc3Cl)n2)cc1

photoluminescence quantum yield (in ClCCl): 0.01
Compound: COc1ccc(-c2ncccn2)cc1

photoluminescence quantum yield (in ClCCl): 0.7
Compound: CC1=C(C)C(c2c(C)c(C)c3n2[B-](F)(F)[N+]2=C(C)C(C)=C(C)C2=C3)=[N+]2C1=Cc1c(C)c(C)c(C)n1[B-]2(F)F

photoluminescence quantum yield (in CN(C)C=O): 0.24
Compound: c1ccc(CO[Si]23n4c5c6ccccc6c4/N=C4N=C(/N=c6/c7ccccc7c(n62)=c2c6ccccc6c(n23)=N5)c2ccccc2\4)cc1 (stereo unspecified)

photoluminescence quantum yield (in C1CCCCC1): 0.421
photoluminescence quantum yield (in CC#N): 0.277
photoluminescence quantum yield (in CC(C)O): 0.398
photoluminescence quantum yield (in CCCCCC): 0.42
photoluminescence quantum yield (in CCCCCCCCCCCCCCCC): 0.429
photoluminescence quantum yield (in CCCCCCCCCCCCCCCCCl): 0.441
photoluminescence quantum yield (in CO): 0.305
Compound: COC(=O)c1ccc(C#Cc2ccccc2)cc1

photoluminescence quantum yield (in CC#N): 0.234
photoluminescence quantum yield (in CCCCCC): 0.142
photoluminescence quantum yield (in CO): 0.161
photoluminescence quantum yield (in ClC(Cl)Cl): 0.312
Compound: c1ccc2c(c1)cc(-c1cc(-c3nccs3)nc(-c3nccs3)c1)c1ccccc12

photoluminescence quantum yield (in CC#N): 0.37
Compound: CCOC(=O)c1c2c3c(cccc3c3cc4ccccc4cc13)N(C)C2=O

photoluminescence quantum yield (in ClCCl): 0.82
Compound: Clc1cc(Cl)c(B2c3ccccc3Nc3ccccc32)c(Cl)c1

photoluminescence quantum yield (in ClC(Cl)Cl): 0.1
Compound: COc1cc(OC)c2c(c1)c1cc3oc(=O)cc(C)c3cc1c1cc(OC)cc(OC)c12

photoluminescence quantum yield (in CC#N): 0.72
Compound: CC(=O)OC[C@H]1O[C@@H](OCC#Cc2ccc(C3=C4C(C)=CC(/C=C/c5ccc([N+](C)(C)C)cc5)=[N+]4[B-](F)(F)n4c(/C=C/c5ccc([N+](C)(C)C)cc5)cc(C)c43)cc2)[C@H](OC(C)=O)C(OC(C)=O)[C@@H]1OC(C)=O (stereo partly specified)
